From US7642221B2, “Substituted thien-3-yl-sulphonylamino(thio)carbonyl-triazoline(ethi)ones” (Bayer Aktiengesellschaft, priority 1999, dated 2010)

Key:
Format in all cases: in vivo
[1] = system: Abutilon; assay: Pre-emergence test/greenhouse; conditions: greenhouse, rated after three weeks
Method: (§1) • Solvent: 5 parts by weight of acetone • Emulsifier: 1 part by weight of alkylaryl polyglycol ether
(§2) To produce a suitable preparation of active compound, 1 part by weight of active compound is mixed with the stated amount of solvent, the stated amount of emulsifier is added and the concentrate is diluted with water to the desired concentration.
(§3) Seeds of the test plants are sown in normal soil. After about 24 hours, the soil is sprayed with the preparation of active compound such that the particular amount of active compound desired is applied per unit area. The concentration of the spray liquor is chosen so that the particular amount of active compound desired is applied in 1000 liters of water per hectare.
(§4) After three weeks, the degree of damage to the plants is rated in % damage in comparison to the development of the untreated control.
(§5) The figure denote: • 0%=no effect (like untreated control) • 100%=total destruction

[2] = system: Setaria; assay: Pre-emergence test/greenhouse; conditions: greenhouse, rated after three weeks
Method: as §1, §2, §3, §4, §5

[3] = system: Sinapis; assay: Pre-emergence test/greenhouse; conditions: greenhouse, 250 g of ai/ha, rated after three weeks
Method: as §1, §2, §3, §4, §5

[4] = system: Amaranthus; assay: Pre-emergence test/greenhouse; conditions: greenhouse, 250 g of ai/ha, rated after three weeks
Method: as §1, §2, §3, §4, §5

[5] = system: Cyperus; assay: Pre-emergence test/greenhouse; conditions: greenhouse, rated after three weeks
Method: as §1, §2, §3, §4, §5

[6] = system: Alopecurus; assay: Pre-emergence test/greenhouse; conditions: greenhouse, 250 g of ai/ha, rated after three weeks
Method: as §1, §2, §3, §4, §5

[7] = system: Galium; assay: Pre-emergence test/greenhouse; conditions: greenhouse, 250 g of ai/ha, rated after three weeks
Method: as §1, §2, §3, §4, §5

[8] = system: weeds; assay: Post-emergence test, activity against weeds
Method: as §1
(§6) To produce a suitable preparation of active compound, one part by weight of active compound is mixed with the stated amount of solvent, the stated amount of emulsifier is added and the concentrate is diluted with water to the desired concentration.
(§7) Test plants which have a height of 5-15 cm are sprayed with the preparation of active compound such that the particular amounts of active compound desired are applied per unit area. The concentration of the spray liquor is chosen so that the particular amounts of active compound desired are applied in 1000 l of water/ha.
as §4
(§8) The figures denote: • 0%=no effect (like untreated control) • 100%=total destruction

[9] = system: weeds; assay: Pre-emergence test, activity against weeds
Method: as §1, §2, §3, §4, §5

[10] = system: Abutilon; assay: Post-emergence test/greenhouse; conditions: greenhouse, 250 g of ai/ha, rated after three weeks
Method: as §1, §6, §7, §4, §8

[11] = system: Setaria; assay: Post-emergence test/greenhouse; conditions: greenhouse, 250 g of ai/ha, rated after three weeks
Method: as §1, §6, §7, §4, §8

[12] = system: Xanthium; assay: Post-emergence test/greenhouse; conditions: greenhouse, 250 g of ai/ha, rated after three weeks
Method: as §1, §6, §7, §4, §8

[13] = system: Sinapis; assay: Post-emergence test/greenhouse; conditions: greenhouse, 250 g of ai/ha, rated after three weeks
Method: as §1, §6, §7, §4, §8

[14] = system: Avenafatua; assay: Post-emergence test/greenhouse; conditions: greenhouse, 250 g of ai/ha, rated after three weeks
Method: as §1, §6, §7, §4, §8

[15] = system: Amaranthus; assay: Post-emergence test/greenhouse; conditions: greenhouse, 250 g of ai/ha, rated after three weeks
Method: as §1, §6, §7, §4, §8

[16] = system: Alopecurus; assay: Post-emergence test/greenhouse; conditions: greenhouse, 250 g of ai/ha, rated after three weeks
Method: as §1, §6, §7, §4, §8

[17] = system: Bromus; assay: Pre-emergence test/greenhouse; conditions: greenhouse, 60 g of ai/ha, rated after three weeks
Method: as §1, §2, §3, §4, §5

[18] = system: Solanum; assay: Pre-emergence test/greenhouse; conditions: greenhouse, 60 g of ai/ha, rated after three weeks
Method: as §1, §2, §3, §4, §5

[19] = system: Cotton; assay: Pre-emergence test/greenhouse; conditions: greenhouse, 60 g of ai/ha, rated after three weeks
Method: as §1, §2, §3, §4, §5

[20] = system: Veronica; assay: Pre-emergence test/greenhouse; conditions: greenhouse, 60 g of ai/ha, rated after three weeks
Method: as §1, §2, §3, §4, §5

[21] = system: Chenopodium; assay: Pre-emergence test/greenhouse; conditions: greenhouse, 60 g of ai/ha, rated after three weeks
Method: as §1, §2, §3, §4, §5

[22] = system: Stellaria; assay: Pre-emergence test/greenhouse; conditions: greenhouse, 60 g of ai/ha, rated after three weeks
Method: as §1, §2, §3, §4, §5

[23] = system: Viola; assay: Pre-emergence test/greenhouse; conditions: greenhouse, 60 g of ai/ha, rated after three weeks
Method: as §1, §2, §3, §4, §5

[24] = system: Echinochloa; assay: Pre-emergence test/greenhouse; conditions: greenhouse, 60 g of ai/ha, rated after three weeks
Method: as §1, §2, §3, §4, §5

[25] = system: Maize; assay: Pre-emergence test/greenhouse; conditions: greenhouse, 60 g of ai/ha, rated after three weeks
Method: as §1, §2, §3, §4, §5

CCCOc1nn(C(=O)NS(=O)(=O)c2c(C(=O)OC)csc2C)c(=O)n1C1CC1 [Example 7]
degree of damage to the plants, Abutilon ([1]; 250 g of ai/ha): 95% | degree of damage to the plants, Setaria ([2]; 250 g of ai/ha): 95% | degree of damage to the plants, Sinapis [3]: 95% | degree of damage to the plants, Amaranthus [4]: 95% | degree of damage to the plants, Cyperus ([5]; 250 g of ai/ha): 100% | degree of damage to the plants, Alopecurus [6]: 90% | degree of damage to the plants, Galium [7]: 95% | activity against weeds [8]: very strong activity | activity against weeds [9]: very strong activity | degree of damage to the plants, Abutilon [10]: 100% | degree of damage to the plants, Setaria [11]: 90% | degree of damage to the plants, Xanthium [12]: 90% | degree of damage to the plants, Sinapis [13]: 100% | degree of damage to the plants, Avenafatua [14]: 100% | degree of damage to the plants, Amaranthus [15]: 100% | degree of damage to the plants, Alopecurus [16]: 95%

COC(=O)c1csc(C)c1S(=O)(=O)NC(=O)n1nc(OC(C)C)n(C2CC2)c1=O [Example 8]
degree of damage to the plants, Bromus [17]: 90% | degree of damage to the plants, Solanum [18]: 90% | degree of damage to the plants, Cotton [19]: 0% | degree of damage to the plants, Veronica [20]: 95% | degree of damage to the plants, Chenopodium [21]: 90% | degree of damage to the plants, Stellaria [22]: 95% | degree of damage to the plants, Viola [23]: 100% | degree of damage to the plants, Echinochloa [24]: 90% | activity against weeds [8]: very strong activity | activity against weeds [9]: very strong activity | degree of damage to the plants, Abutilon [10]: 100% | degree of damage to the plants, Setaria [11]: 100% | degree of damage to the plants, Xanthium [12]: 100% | degree of damage to the plants, Sinapis [13]: 95% | degree of damage to the plants, Avenafatua [14]: 100% | degree of damage to the plants, Amaranthus [15]: 100% | degree of damage to the plants, Alopecurus [16]: 100%

COC(=O)c1csc(C)c1S(=O)(=O)NC(=O)n1nc(C2CC2)n(C2CC2)c1=O [Example 9]
degree of damage to the plants, Abutilon ([1]; 250 g of ai/ha): 100% | degree of damage to the plants, Setaria ([2]; 250 g of ai/ha): 100% | degree of damage to the plants, Sinapis [3]: 95% | degree of damage to the plants, Amaranthus [4]: 100% | degree of damage to the plants, Cyperus ([5]; 250 g of ai/ha): 100% | degree of damage to the plants, Alopecurus [6]: 95% | degree of damage to the plants, Galium [7]: 95% | activity against weeds [8]: very strong activity | activity against weeds [9]: very strong activity | degree of damage to the plants, Abutilon [10]: 100% | degree of damage to the plants, Setaria [11]: 100% | degree of damage to the plants, Xanthium [12]: 100% | degree of damage to the plants, Sinapis [13]: 100% | degree of damage to the plants, Avenafatua [14]: 100% | degree of damage to the plants, Amaranthus [15]: 100% | degree of damage to the plants, Alopecurus [16]: 100%

COC(=O)c1csc(C)c1S(=O)(=O)NC(=O)n1nc(SC)n(C)c1=O [Example 12]
degree of damage to the plants, Abutilon ([1]; 60 g of ai/ha): 100% | degree of damage to the plants, Bromus [17]: 100% | degree of damage to the plants, Setaria ([2]; 60 g of ai/ha): 100% | degree of damage to the plants, Veronica [20]: 100% | degree of damage to the plants, Stellaria [22]: 100% | degree of damage to the plants, Cyperus ([5]; 60 g of ai/ha): 100% | degree of damage to the plants, Viola [23]: 100% | degree of damage to the plants, Maize [25]: 10% | activity against weeds [8]: very strong activity | activity against weeds [9]: very strong activity | degree of damage to the plants, Abutilon [10]: 100% | degree of damage to the plants, Setaria [11]: 100% | degree of damage to the plants, Xanthium [12]: 100% | degree of damage to the plants, Sinapis [13]: 100% | degree of damage to the plants, Avenafatua [14]: 100% | degree of damage to the plants, Amaranthus [15]: 100% | degree of damage to the plants, Alopecurus [16]: 95%
